Assay results: patent US20240269085A1, “CO[…] COMPOUNDS AND PRODUCTION THEREOF” (Esolate Ltd, priority 2019, published 2024)

Experiments:
Format in all cases: physicochemical
[1] = Relative bioavailability test: HPLC-UV of CBD concentration in water; conditions: after 32 hours elapsed time
Protocol: Relative bioavailability tests of the cannabinoid ultrafine nanoparticles obtained as described in Example 4 (test samples) as compared to cannabinoid isolates in water (control samples) were performed using a high performance liquid chromatography (HPLC) separator equipped with a UV detector to determine the concentration of CBD in each sample. Control samples were prepared by filtering 1 ml of each sample through a 0.45 μm filter into a 2 ml HPLC vial and 1 ml of methanol (MeOH) was added to each sample vial. HPLC mobile phase was comprised of 65% acetonitrile and 35% water. A flow rate of 1 ml per minute led to the elution of CBD after approximately 4.5 minutes.
A percentage area was measured after 32 hours elapsed time, which represents the amount of CBD in each sample relative to the background signal created by the MeOH in each sample.

[2] = Visual solubility in simulated stomach conditions (0.155 M HCl with NaCl, 37° C.)
Protocol: Bioavailability of the cannabinoid ultrafine nanoparticles obtained as described in Example 4 was assessed by visually evaluating the solubility of the fine nanoparticles in simulated stomach conditions. 0.5 g of NaCl was added to a 0.155 M solution of HCl in water to replicate stomach acidic conditions. 10 mg of the fine nanoparticles, 10 mg of the isolates in crystalline form, and 10 mg of the distillates were each placed in vials containing 10 ml of the acidic solution and incubated for 10 hours at 37° C. At the end of the 10-hour period, only minimal solubility of the preparations was observed. Additional 10 ml of the acidic solution were added, and the mixtures were incubated for 10 more hours at 37° C. At the end of the 20-hour period, the cannabinoid nanoparticles dissolved in the acidic solution.

Solubility in water = assay: Solubility in water

With `C=C(C)[C@@H]1CCC(C)=C[C@H]1c1c(O)cc(CCCCC)cc1O` [CBD isolate, cannabidiol] the “percentage area (amount of CBD relative to MeOH background)” value [1] was 0.7706%, the “solubility in acidic solution” value ([2]; 10 mg in 20 ml, 20 hours at 37° C.) was “complete insolubility” and the “solubility in acid (visual)” value ([2]; acidic solvent resembling stomach conditions) was “insoluble”. For the same molecule, the “solubility in water (visual)” value (Solubility in water) was “insoluble”.
